From US8217041B2, “Indene derivatives, their preparation and use as medicaments” (Laboratories del Sr. Esteve, S.A., priority 2005, dated 2012)
Like-named read-outs stand apart in the source and are kept apart here.

Molecular target: T1, 5HT6 human recombinant receptor (Homo sapiens, UniProt P50406)
T1 construct: purchased Receptor Biology; host or cells: HEK-293 cell membranes
Assay: Binding test to 5-HT6 receptors ([3H]-LSD displacement, HEK-293 cell membranes)
Details: for inhibition at 1 µM: compound concentration 10^−6 M; for Ki: inhibition constant by non-linear regression (EBDA/LIGAND), [3H]-LSD 2.7 nM; for inhibition at 0.1 µM: read-out: % Inhibition 10^−7 M; for inhibition at 0.01 µM: read-out: % Inhibition 10^−8 M
Procedure: Binding Test to 5-HT6 Receptors
Membranes of HEK-293 cells expressing the 5HT6 human recombinant receptor were supplied by Receptor Biology. In these membranes the receptor concentration is 2.18 pmol/mg protein and the protein concentration is 9.17 mg/ml. The experimental protocol follows the method of B. L. Roth et al. [B. L. Roth, S. C. Craigo, M. S. Choudhary, A. Uluer, F. J. Monsma, Y. Shen, H. Y. Meltzer, D. R. Sibley: Binding of Typical and Atypical Antipsychotic Agents to 5-Hydroxytryptamine-6 and Hydroxytriptamine-7 Receptors. The Journal of Pharmacology and Experimental Therapeutics, 1994, 268, 1403] with slight modifications. The commercial membrane is diluted (dilution 1:40) with the binding buffer: 50 mM Tris-HCl, 10 mM MgCl2, 0.5 mM EDTA (pH 7.4). The radioligand used is [^3H]-LSD at a concentration of 2.7 nM with a final volume of 200 μl. Incubation is initiated by adding 100 μl of the membrane suspension (≈22.9 μg membrane protein), and continues for 60 minutes at a temperature of 37° C. Incubation ends by fast filtration in a Harvester Brandel Cell through glass fibre filters manufactured by Schleicher & Schuell GF 3362 pre-treated with a 0.5% polyethylenimine solution. The filters are washed three times with three milliliters of Tris-HCl 50 mM pH 7.4 buffer. The filters are transferred to vials and to each vial 5 ml of liquid scintillation cocktail Ecoscint H is added. The vials are allowed to reach equilibrium for several hours before being counted in a Wallac Winspectral 1414 scintillation counter. Non-specific binding is determined in the presence of 100 μM serotonin. The tests are performed in triplicate. The inhibition constants (Ki, nM) are calculated by non-linear regression analysis using the program EBDA/LIGAND [Munson and Rodbard, Analytical Biochemistry, 1980, 107, 220].

[1] = radioligand [3H]-LSD 2.7 nM, 60 min, 37° C.
[2] = compound concentration 10^−7 M, radioligand [3H]-LSD 2.7 nM, 60 min, 37° C.
[3] = compound concentration 10^−8 M, radioligand [3H]-LSD 2.7 nM, 60 min, 37° C.

T1 sequence (P50406 whole entry): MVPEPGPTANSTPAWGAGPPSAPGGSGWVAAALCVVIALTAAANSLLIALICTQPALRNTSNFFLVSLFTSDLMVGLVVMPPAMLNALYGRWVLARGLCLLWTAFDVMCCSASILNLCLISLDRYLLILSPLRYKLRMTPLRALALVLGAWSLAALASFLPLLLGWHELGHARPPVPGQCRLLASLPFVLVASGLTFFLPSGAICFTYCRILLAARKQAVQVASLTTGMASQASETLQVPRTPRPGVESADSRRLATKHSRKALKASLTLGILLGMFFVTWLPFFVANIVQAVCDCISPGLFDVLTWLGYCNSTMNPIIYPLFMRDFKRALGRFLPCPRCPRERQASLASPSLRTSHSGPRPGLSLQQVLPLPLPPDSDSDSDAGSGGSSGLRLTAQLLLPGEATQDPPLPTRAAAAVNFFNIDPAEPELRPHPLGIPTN

Row | SMILES | inhibition at 1 µM [1] | Ki | inhibition at 0.1 µM [2] | inhibition at 0.01 µM [3] | inhibition at 0.1 µM | inhibition at 0.01 µM
1 | CC1=C(CCN(C)C)c2cc(NS(=O)(=O)c3c(Cl)nc4sccn34)ccc2C1 [Example 19, N-[3-(2-Dimethylaminoethyl)-2-methyl-1H-inden-5-yl]-6-chloroimidazo[2,1-b]thiazole-5-sulfonamide] | 97% | 4.8 nM | – | – | – | –
2 | CC1=C(CCN(C)C)c2cc(NS(=O)(=O)c3sc4ccc(Cl)cc4c3C)ccc2C1 [Example 20, N-[3-(2-Dimethylaminoethyl)-2-methyl-1H-inden-5-yl]-5-chloro-3-methylbenzo[b]thiophene-2-sulfonamide] | – | – | 42% | 13% | – | –
3 | CC1=C(CCN2CCCC2)c2cc(NS(=O)(=O)c3c(Cl)nc4sccn34)ccc2C1 [Example 29, N-[3-(2-Pyrrolidin-1-ylethyl)-2-methyl-1H-inden-5-yl]-6-chloroimidazo[2,1-b]thiazole-5-sulfonamide] | – | – | 82% | 53% | – | –
4 | CC1=C(CCN2CCCC2)c2cc(NS(=O)(=O)c3ccc(N)cc3)ccc2C1 [Example 32, 4-Amino-N-[3-(2-pyrrolidin-1-ylethyl)-2-methyl-1H-inden-5-yl]benzene sulfonamide] | – | – | 63% | 26% | – | –
5 | CC1=C(CCN(C)C)c2cc(NS(=O)(=O)c3ccc4ccccc4c3)ccc2/C1=C\c1ccccc1 [Example 33, N-[1(Z)-Benzylidene-3-(2-dimethylaminoethyl)-2-methyl-1H-inden-5-yl]naphthalene-2-sulfonamide] | – | 216 nM | – | – | – | –
6 | CC1=C(CCN(C)C)c2cc(NS(=O)(=O)c3ccc4ccccc4c3)ccc2C1 [Example 34, N-[3-(2-Dimethylaminoethyl)-2-methyl-1H-inden-5-yl]naphthalene-2-sulfonamide] | 100% | 50.6 nM | 71% | 18% | – | –
7 | CC1=C(CCN2CCCC2)c2cc(NS(=O)(=O)c3ccc4ccccc4c3)ccc2C1 [Example 35, N-[2-Methyl-3-(2-pyrrolidin-1-ylethyl)-1H-inden-5-yl]naphthalene-2-sulfonamide] | 92% | 62.9 nM | – | – | – | –
8 | CC1=C(CCN2CCCC2)c2cccc(NS(=O)(=O)c3ccc4ccccc4c3)c2C1 [Example 36, N-[2-Methyl-1-(2-pyrrolidin-1-ylethyl)-3H-inden-4-yl]naphthalene-2-sulfonamide] | 72% | 157 nM | – | – | – | –
9 | O=S(=O)(Nc1ccc2c(c1)C(CCN1CCCC1)=CC2)c1ccc2ccccc2c1 [Example 37, N-[3-(2-Pyrrolidin-1-ylethyl)-1H-inden-5-yl]naphthalene-2-sulfonamide] | 92% | 46.3 nM | – | – | – | –
10 | CC1=C(CCN2CCCC2)c2cc(NS(=O)(=O)c3sc4ccc(Cl)cc4c3C)ccc2C1 [Example 38, N-[2-Methyl-3-(2-pyrrolidin-1-ylethyl)-1H-inden-5-yl]-5-chloro-3-methylbenzo[b]thiophene-2-sulfonamide] | 100% | 20.2 nM | – | – | – | –
11 | CC1=C(CCN(C)C)c2cc(S(=O)(=O)Nc3cccc4ccccc34)ccc2C1 [Example 39, N-(Naphthalene-1-yl)-3-(2-dimethylaminoethyl)-2-methyl-1H-indene-5-sulfonamide] | – | – | 51% | 25% | – | –
12 | CC1=C(CCO)c2cc(NS(=O)(=O)c3ccc4ccccc4c3)ccc2C1 [Example 40, N-[3-(2-Hydroxyethyl)-2-methyl-1H-inden-5-yl]naphthalene-2-sulfonamide] | 45% | – | 16% | 8% | – | –
13 | CN(C)CCC1=CC(C)(C)c2ccc(NS(=O)(=O)c3c(Cl)nc4sccn34)cc21 [Example 41, 6-Chloro-N-{3-[2-(dimethylamino)ethyl]-1,1-dimethyl-1H-inden-5-yl}imidazo[2,1-b] [1,3]thiazole-5-sulfonamide] | – | – | 24.5% | 9.4% | – | –
14 | Cc1c(S(=O)(=O)Nc2ccc3c(c2)C(CCN(C)C)=CC3(C)C)sc2ccc(Cl)cc12 [Example 42, 5-Chloro-N-{3-[2-(dimethylamino)ethyl]-1,1-dimethyl-1H-inden-5-yl}-3-methylbenzo[b]thiophene-2-sulfonamide] | – | – | 2.3% | -7.5% | – | –
15 | CC1=C(CCN(C)C)c2cc(NS(=O)(=O)c3cccc4ccccc34)ccc2C1 [Example 43, N-{3-[2-(Dimethylamino)ethyl]-2-methyl-1H-inden-5-yl}naphthalene-1-sulfonamide] | – | – | 78.4% | 32% | – | –
16 | CC1=C(CCN(C)C)c2cc(NS(=O)(=O)c3csc4ccccc34)ccc2C1 [Example 44, N-{3-[2-(Dimethylamino)ethyl]-2-methyl-1H-inden-5-yl}-1-benzothiophene-3-sulfonamide] | – | – | 88.3% | 53% | – | –
17 | CC1=C(C2CCN(C)C2)c2cc(NS(=O)(=O)c3c(Cl)nc4sccn34)ccc2C1 (stereo not shown) [Example 45, 6-Chloro-N-[2-methyl-3-(1-methylpyrrolidin-3-yl)-1H-inden-5-yl]imidazo[2,1-b] [1,3]thiazole-5-sulfonamide] | – | – | 5.4% | 7.4% | – | –
18 | CC1=C(C2CCCN(C)C2)c2cc(NS(=O)(=O)c3c(Cl)nc4sccn34)ccc2C1 (stereo not shown) [Example 46, 6-Chloro-N-[2-methyl-3-(1-methylpiperidin-3-yl)-1H-inden-5-yl]imidazo[2,1-b] [1,3]thiazole-5-sulfonamide] | – | – | 85.8% | 77.6% | – | –
19 | CC1=C(CCN(C)C)c2cc(Cl)ccc2C1 [Example 47, 2-(5-Chloro-2-methyl-1H-inden-3-yl)-N,N-dimethylethanamine] | – | – | – | – | 8.9% | 16.2%
